Our source for the Ki and inhibition values is patent publication US20110071180A1, “SUB-TYPE SELECTIVE AMIDES OF DIAZABICYCLOALKANES” (Targacept, Inc., priority 2008, published 2011).

One assay concerns the target T1, human α4β2 nAChR subtype (Homo sapiens, UniProt P17787+P43681).
T1 construct: expressed in transfected cells; host or cells: SH-EP1 clonal cells expressing human α4β2
The assay is described as follows: Radioligand binding, [3H]nicotine, membranes from SH-EP1/human α4β2 clonal cells. The settings on record: [3H]nicotine 5 nM, SH-EP1/human α4β2 cell membranes. How it is done:
Preparation of membranes from SH-EP1/human α4β2 clonal cells: Cell pellets from 40 150 mm culture dishes were pooled, and homogenized by Polytron (Kinematica GmbH, Switzerland) in 20 milliliters of ice-cold preparative buffer. The homogenate was centrifuged at 48,000 g for 20 minutes at 4° C. The resulting pellet was re-suspended in 20 mL of ice-cold preparative buffer and stored at −20° C.
(§1) On the day of the assay, the frozen membranes were thawed and spun at 48,000×g for 20 min. The supernatant was decanted and discarded. The pellet was resuspended in Dulbecco's phosphate buffered saline (PBS, Life Technologies) pH 7.4 and homogenized with the Polytron for 6 seconds. Protein concentrations were determined using a Pierce BCA Protein Assay Kit, with bovine serum albumin as the standard (Pierce Chemical Company, Rockford, Ill.).
(§2) Membrane preparations (approximately 50 μg for human and 200-300 μg protein for rat α4β2) were incubated in PBS (50 μL and 100 μL respectively) in the presence of competitor compound (0.01 nM to 100 μM) and 5 nM [^3H]nicotine for 2-3 hours on ice. Incubation was terminated by rapid filtration on a multi-manifold tissue harvester (Brandel, Gaithersburg, Md.) using GF/B filters presoaked in 0.33% polyethyleneimine (w/v) to reduce non-specific binding. Tissue was rinsed 3 times in PBS, pH 7.4. Scintillation fluid was added to filters containing the washed tissue and allowed to equilibrate. Filters were then counted to determine radioactivity bound to the membranes by liquid scintillation counting (2200CA Tri-Carb LSC, Packard Instruments, 50% efficiency or Wallac Trilux 1450 MicroBeta, 40% efficiency, Perkin Elmer).
(§3) Data were expressed as disintegrations per minute (DPMs). Within each assay, each point had 2-3 replicates. The replicates for each point were averaged and plotted against the log of the drug concentration. IC50, which is the concentration of the compound that produces 50% inhibition of binding, was determined by least squares non-linear regression. Ki values were calculated using the Cheng-Prussof equation (1973): […]

The target in the next assay is T2, α7 nAChR subtype (Rattus norvegicus, UniProt Q05941).
T2 construct: The hippocampus was removed and placed in 10 volumes (weight:volume) of ice-cold preparative buffer; from tissue; host or cells: rat hippocampus membranes (female Sprague-Dawley)
T2 sequence (Q05941 23-502): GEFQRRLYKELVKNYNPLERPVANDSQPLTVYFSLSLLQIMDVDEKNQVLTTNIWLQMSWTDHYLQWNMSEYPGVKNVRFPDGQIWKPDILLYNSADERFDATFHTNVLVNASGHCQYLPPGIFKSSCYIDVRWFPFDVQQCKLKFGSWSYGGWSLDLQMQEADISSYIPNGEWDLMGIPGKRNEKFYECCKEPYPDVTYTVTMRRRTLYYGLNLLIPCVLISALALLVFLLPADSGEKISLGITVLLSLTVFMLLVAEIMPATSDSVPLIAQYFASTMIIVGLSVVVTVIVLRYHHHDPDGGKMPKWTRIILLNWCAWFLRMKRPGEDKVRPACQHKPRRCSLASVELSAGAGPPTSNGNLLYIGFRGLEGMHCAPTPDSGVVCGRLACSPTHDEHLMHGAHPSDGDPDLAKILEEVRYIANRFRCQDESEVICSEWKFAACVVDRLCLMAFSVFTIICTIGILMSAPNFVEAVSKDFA
The assay is described as follows: Radioligand binding, [3H]MLA, rat hippocampus membranes. The note with it: read-out: α7 high through-put screening (HTS) result. The protocol:
Rats (female, Sprague-Dawley), weighing 150-250 g, were maintained on a 12 h light/dark cycle and were allowed free access to water and food supplied by PMI Nutrition International, Inc. Animals were anesthetized with 70% CO2, then decapitated. Brains were removed and placed on an ice-cold platform. The hippocampus was removed and placed in 10 volumes (weight:volume) of ice-cold preparative buffer (137 mM NaCl, 10.7 mM KCl, 5.8 mM KH2PO4, 8 mM Na2HPO4, 20 mM HEPES (free acid), 5 mM iodoacetamide, 1.6 mM EDTA, pH 7.4); PMSF, dissolved in methanol to a final concentration of 100 μM, was added and the tissue suspension was homogenized by Polytron. The homogenate was centrifuged at 18,000×g for 20 min at 4° C. and the resulting pellet was re-suspended in 10 volumes of ice-cold water. After 60 min incubation on ice, a new pellet was collected by centrifugation at 18,000×g for 20 min at 4° C. The final pellet was re-suspended in 10 volumes of buffer and stored at −20° C. On the day of the assay, tissue was thawed, centrifuged at 18,000×g for 20 min, and then re-suspended in ice-cold PBS (Dulbecco's Phosphate Buffered Saline, 138 mM NaCl, 2.67 mM KCl, 1.47 mM KH2PO4, 8.1 mM Na2HPO4, 0.9 mM CaCl2, 0.5 mM MgCl2, Invitrogen/Gibco, pH 7.4) to a final concentration of approximately 2 mg protein/mL. Protein was determined by the method of Lowry et al., J. Biol. Chem. 193: 265 (1951), using bovine serum albumin as the standard.
The binding of [^3H]MLA was measured using a modification of the methods of Davies et al., Neuropharmacol. 38: 679 (1999). [^3H]MLA (Specific Activity=25-35 Ci/mmol) was obtained from Tocris. The binding of [^3H]MLA was determined using a 2 h incubation at 21° C. Incubations were conducted in 48-well micro-titre plates and contained about 200 μg of protein per well in a final incubation volume of 300 μL. The incubation buffer was PBS and the final concentration of [^3H]MLA was 5 nM. The binding reaction was terminated by filtration of the protein containing bound ligand onto glass fiber filters (GF/B, Brandel) using a Brandel Tissue Harvester at room temperature. Filters were soaked in de-ionized water containing 0.33% polyethyleneimine to reduce non-specific binding. Each filter was washed with PBS (3×1 mL) at room temperature. Non-specific binding was determined by inclusion of 50 μM non-radioactive MLA in selected wells.
The inhibition of [^3H]MLA binding by test compounds was determined by including seven different concentrations of the test compound in selected wells. Each concentration was replicated in triplicate. IC50 values were estimated as the concentration of compound that inhibited 50 percent of specific [^3H]MLA binding. Inhibition constants (Ki values), reported in nM, were calculated from the IC50 values using the method of Cheng et al., Biochem. Pharmacol. 22: 3099-3108 (1973).

The next assay has as its target T3, rat α4β2 nAChR subtype (Rattus norvegicus, UniProt P09483+P12390).
T3 construct: The cerebral cortex was removed and placed in 20 volumes (weight:volume) of ice-cold preparative buffer; from tissue; host or cells: rat cerebral cortex membranes (female Sprague-Dawley)
The assay is described as follows: Radioligand binding, [3H]nicotine, rat cortex membranes. The settings on record: [3H]nicotine 5 nM. How it is done:
Preparation of Membranes from Rat Cortex: Rats (Female, Sprague-Dawley), weighing 150-250 g, were maintained on a 12 h light/dark cycle and were allowed free access to water and food supplied by PMI Nutrition International, Inc. Animals were anesthetized with 70% CO2, and then decapitated. Brains were removed and placed on an ice-cold platform. The cerebral cortex was removed and placed in 20 volumes (weight:volume) of ice-cold preparative buffer (137 mM NaCl, 10.7 mM KCl, 5.8 mM KH2PO4, 8 mM Na2HPO4, 20 mM HEPES (free acid), 5 mM iodoacetamide, 1.6 mM EDTA, pH 7.4); PMSF, dissolved in methanol to a final concentration of 100 μM, was added and the suspension was homogenized by Polytron. The homogenate was centrifuged at 18,000×g for 20 min at 4° C. and the resulting pellet was re-suspended in 20 volumes of ice-cold water. After 60 min incubation on ice, a new pellet was collected by centrifugation at 18,000×g for 20 min at 4° C. The final pellet was re-suspended in 10 volumes of buffer and stored at −20° C.
as §1, §2, §3

T1 sequence (P43681 29-627 limits assumed): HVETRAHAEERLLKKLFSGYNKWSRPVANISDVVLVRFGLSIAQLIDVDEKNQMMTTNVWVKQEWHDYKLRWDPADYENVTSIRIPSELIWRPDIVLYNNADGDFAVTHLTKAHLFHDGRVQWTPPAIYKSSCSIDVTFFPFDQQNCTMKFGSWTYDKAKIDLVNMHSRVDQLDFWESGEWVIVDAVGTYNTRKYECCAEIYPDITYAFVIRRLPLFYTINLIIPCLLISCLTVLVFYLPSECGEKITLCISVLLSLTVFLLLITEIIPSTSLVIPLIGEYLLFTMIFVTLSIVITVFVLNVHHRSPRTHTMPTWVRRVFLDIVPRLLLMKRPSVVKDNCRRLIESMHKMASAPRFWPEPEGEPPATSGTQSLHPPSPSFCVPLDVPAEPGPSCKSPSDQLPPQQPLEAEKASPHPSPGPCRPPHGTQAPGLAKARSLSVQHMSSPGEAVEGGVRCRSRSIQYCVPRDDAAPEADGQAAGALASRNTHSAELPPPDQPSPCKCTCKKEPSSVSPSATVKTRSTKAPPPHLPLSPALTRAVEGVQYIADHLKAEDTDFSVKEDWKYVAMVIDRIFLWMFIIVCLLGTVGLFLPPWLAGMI
T1 sequence (P17787 26-502): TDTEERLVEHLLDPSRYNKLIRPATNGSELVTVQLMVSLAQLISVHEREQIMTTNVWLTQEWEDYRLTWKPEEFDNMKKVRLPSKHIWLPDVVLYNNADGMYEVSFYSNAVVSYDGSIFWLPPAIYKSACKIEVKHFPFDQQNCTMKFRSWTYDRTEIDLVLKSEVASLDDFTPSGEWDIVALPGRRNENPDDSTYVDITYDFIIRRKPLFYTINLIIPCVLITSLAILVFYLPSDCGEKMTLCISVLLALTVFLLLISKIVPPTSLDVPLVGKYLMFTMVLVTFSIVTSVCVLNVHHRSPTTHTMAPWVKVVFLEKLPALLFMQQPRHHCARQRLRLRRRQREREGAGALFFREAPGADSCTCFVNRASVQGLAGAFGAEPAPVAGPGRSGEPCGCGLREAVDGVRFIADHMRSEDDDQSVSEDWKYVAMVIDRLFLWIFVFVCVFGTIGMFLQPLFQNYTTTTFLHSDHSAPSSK
T3 sequence (P09483 31-630): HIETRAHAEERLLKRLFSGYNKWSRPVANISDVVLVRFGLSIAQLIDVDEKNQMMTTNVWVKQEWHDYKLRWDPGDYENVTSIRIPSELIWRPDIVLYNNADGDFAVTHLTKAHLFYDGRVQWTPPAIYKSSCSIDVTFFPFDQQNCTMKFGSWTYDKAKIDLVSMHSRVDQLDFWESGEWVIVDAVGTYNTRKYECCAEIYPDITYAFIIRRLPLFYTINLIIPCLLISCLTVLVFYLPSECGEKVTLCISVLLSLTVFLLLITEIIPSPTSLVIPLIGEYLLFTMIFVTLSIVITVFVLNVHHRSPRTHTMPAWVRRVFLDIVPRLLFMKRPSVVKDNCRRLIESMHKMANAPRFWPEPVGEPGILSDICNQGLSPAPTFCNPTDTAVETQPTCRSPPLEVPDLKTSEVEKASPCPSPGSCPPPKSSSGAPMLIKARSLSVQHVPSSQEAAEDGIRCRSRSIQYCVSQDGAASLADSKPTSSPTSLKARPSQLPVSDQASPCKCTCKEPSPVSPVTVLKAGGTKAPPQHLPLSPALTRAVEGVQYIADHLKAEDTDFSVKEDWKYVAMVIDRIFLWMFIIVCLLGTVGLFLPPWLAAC
T3 sequence (P12390 25-500): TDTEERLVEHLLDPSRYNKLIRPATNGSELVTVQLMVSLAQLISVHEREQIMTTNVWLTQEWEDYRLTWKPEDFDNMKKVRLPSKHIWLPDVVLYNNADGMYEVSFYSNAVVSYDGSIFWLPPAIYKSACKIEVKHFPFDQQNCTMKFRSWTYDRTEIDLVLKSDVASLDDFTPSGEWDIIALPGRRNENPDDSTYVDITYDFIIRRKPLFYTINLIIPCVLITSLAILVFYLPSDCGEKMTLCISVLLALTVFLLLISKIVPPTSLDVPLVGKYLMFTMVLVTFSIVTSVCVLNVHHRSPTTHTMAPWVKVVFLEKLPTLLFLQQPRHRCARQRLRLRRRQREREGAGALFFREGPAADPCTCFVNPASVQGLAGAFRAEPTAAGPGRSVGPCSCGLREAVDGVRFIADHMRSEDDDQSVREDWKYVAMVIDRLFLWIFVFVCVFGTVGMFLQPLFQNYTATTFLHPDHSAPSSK

For `O=C(C1CC1(F)F)N1CC2CNCC2C1` (stereo not drawn) [Example 10-18], the Ki stood at 2.1 nM on human α4β2 nAChR subtype and 6.2 nM at rat α4β2 nAChR subtype. Also, on α7 nAChR subtype, the inhibition at 5 µM was less than 50%.

In the case of `CC1(C)CC1C(=O)N1CC2CNCC2C1` (stereo not drawn) [Example 10-19], the values for the Ki at human α4β2 nAChR subtype and at rat α4β2 nAChR subtype were 16.9 nM and 7.7 nM, respectively. On α7 nAChR subtype, the inhibition at 5 µM is less than 50%.

Turning to `CC1(C(=O)N2CC3CNCC3C2)CC1` (stereo not drawn) [Example 10-20], the results for the inhibitory constant (Ki) at human α4β2 nAChR subtype and at rat α4β2 nAChR subtype were 53.9 nM and 136 nM, respectively. For the same molecule, the inhibition at 5 µM at α7 nAChR subtype is less than 50%.

Turning to `CC1CC1C(=O)N1CC2CNCC2C1` (stereo not drawn) [Example 10-21], the Ki amounted to 4.2 nM on human α4β2 nAChR subtype and 4.1 nM on rat α4β2 nAChR subtype. Also, the inhibition at 5 µM on α7 nAChR subtype was less than 50%.

`O=C(N1CC2CNCC2C1)C1(O)CC1` (stereo not drawn) [Example 10-22]: the figures for the Ki on human α4β2 nAChR subtype and at rat α4β2 nAChR subtype were 343 nM and 445 nM, respectively. Also, the inhibition at 5 µM on α7 nAChR subtype is less than 50%.

Regarding `CC1(C)C(C(=O)N2CC3CNCC3C2)C1(C)C` (stereo not drawn) [Example 10-23], the Ki turned out to be 16.4 nM at human α4β2 nAChR subtype and 49.1 nM at rat α4β2 nAChR subtype. Also, the inhibition at 5 µM on α7 nAChR subtype was less than 50%.

Take `N#CC1(C(=O)N2CC3CNCC3C2)CC1` (stereo not drawn) [Example 10-24]: the values for the Ki on human α4β2 nAChR subtype and at rat α4β2 nAChR subtype were 274 nM and 572 nM, respectively. The inhibition at 5 µM on α7 nAChR subtype was less than 50%.

As to `O=C(C1CCC1)N1CC2CNCC2C1` (stereo not drawn) [Example 10-25], the values for the Ki on human α4β2 nAChR subtype and at rat α4β2 nAChR subtype were 5.8 nM and 12.5 nM, respectively. Further, on α7 nAChR subtype, the inhibition at 5 µM is less than 50%.

Turning to `O=C(C1CC12CCC2)N1CC2CNCC2C1` (stereo not drawn) [Example 10-26], the Ki was 4 nM at human α4β2 nAChR subtype and 6.3 nM on rat α4β2 nAChR subtype. In addition, the inhibition at 5 µM at α7 nAChR subtype was less than 50%.

For the molecule `O=C(CO)N1CC2CNCC2C1` (stereo not drawn) [Example 10-27], the Ki on human α4β2 nAChR subtype turned out to be 202 nM; on rat α4β2 nAChR subtype it was 264 nM. At α7 nAChR subtype, the inhibition at 5 µM is less than 50%.

For `O=C([C@H]1C[C@H]1F)N1CC2CNCC2C1` (stereo partly drawn) [Example 10-28], the inhibition constant (Ki) at human α4β2 nAChR subtype was 2.9 nM; at rat α4β2 nAChR subtype, 10 nM. For the same molecule, the inhibition at 5 µM on α7 nAChR subtype is less than 50%.

In the case of `O=C([C@H]1C[C@@H]1F)N1CC2CNCC2C1` (stereo partly drawn) [Example 10-29], the Ki at human α4β2 nAChR subtype was determined as 5.9 nM; at rat α4β2 nAChR subtype it was 21.3 nM. Besides, at α7 nAChR subtype, the inhibition at 5 µM was less than 50%.

Consider `O=C(CCF)N1CC2CNCC2C1` (stereo not drawn) [Example 10-30], for which the Ki at human α4β2 nAChR subtype was 14.8 nM; on rat α4β2 nAChR subtype it was 22.4 nM. The inhibition at 5 µM at α7 nAChR subtype was less than 50%.

For `CC(C)C(=O)N1CC2CNCC2C1` (stereo not drawn) [Example 10-31], the values for the Ki at human α4β2 nAChR subtype and on rat α4β2 nAChR subtype were 28.6 nM and 56 nM, respectively. Besides, the inhibition at 5 µM at α7 nAChR subtype was less than 50%.

Take `CC(C)(C)C(=O)N1CC2CNCC2C1` (stereo not drawn) [Example 10-32]: the Ki on human α4β2 nAChR subtype was 8.1 nM; at rat α4β2 nAChR subtype it was 15.8 nM. Moreover, the inhibition at 5 µM on α7 nAChR subtype is less than 50%.

As for `O=C(C1CC(F)C1)N1CC2CNCC2C1` (stereo not drawn) [Example 10-33], the figures for the Ki on human α4β2 nAChR subtype and at rat α4β2 nAChR subtype were 18 nM and 7.2 nM, respectively. The inhibition at 5 µM on α7 nAChR subtype is less than 50%.
